The source of these data is ChEMBL document CHEMBL1201862, “PubChem BioAssay data set” (2004).

What all share (assay): NCI anticancer screen, dose series, 48 h
The test system of test [1] is A549.
Test [2] concerns HCC 2998.
Test [3] concerns HCT-15.
Test [4] relates to HOP-62.
Test [5] has as its system HOP-92.
In test [6] the test system is IGROV-1.
Test [7] relates to KM-20L2.
In test [8] the test system is NCI-H23.
The test system of test [9] is NCI-H460.
The test system of test [10] is OVCAR-4.
Test [11] relates to OVCAR-8.
In test [12] the test system is RPMI-8226.
The subject of test [13] is SF-268.
The test system of test [14] is SF-539.
Test [15] has as its system SK-OV-3.
The test system of test [16] is SNB-75.
In test [17] the test system is SR.
Test [18] relates to A498.
In test [19] the test system is CCRF-CEM.

Each structure is given as a SMILES string.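 Method: 48-hour compound exposure of cells in 96-well plates, five concentrations, linear interpolation of endpoints. GI50: concentration for 50% inhibition of growth.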 The source made the active and inactive calls. Cut-off read from the data, not from the text of the source: active = GI50 up to about 1.1 µM and inactive = higher.

Take `CC1(C)C(=O)C(C)(C)C1=NN`: the GI50 in [1] was > 100 µM (inactive); in [2], > 100 µM (inactive); in test [3], more than 100 µM; in [4], > 100 µM (inactive); in test [5] it was > 100 µM (inactive); in test [6], > 100 µM (inactive). The GI50 in test [7], in [8], in test [9], in [10], in test [11] and in test [12] was > 100 µM (inactive) in each case. In addition, the GI50 in test [13], in test [14], in [15], in test [16] and in [17] was > 100 µM (inactive) in each case.
Consider `O=[N+]([O-])c1ccc(C[P+]2(c3ccccc3)CCCCC2)cc1.[O-][Cl+3]([O-])([O-])[O-]`, for which the GI50 in test [18] was > 100 µM (inactive); in [1] it was > 100 µM (inactive); in test [19] it was > 100 µM (inactive); in test [2] it was > 100 µM (inactive); in test [3] it was 72.1 µM; in test [4], > 100 µM (inactive). The GI50 in [6], in test [7], in [8], in [9], in [11] and in [12] was > 100 µM (inactive) in each case. Further, the GI50 in test [14], in test [15], in [16] and in test [17] was > 100 µM (inactive) in each case.
Consider `CCSC(SCC)=C1C(=O)N(c2ccccc2)N=C1C`, for which the GI50 was 15.3 µM (inactive) in test [18]; 18.1 µM (inactive) in test [1]; 2.92 µM (inactive) in test [19]; 14.5 µM (inactive) in test [2]; 12.3 µM in [3]; 23.3 µM (inactive) in test [4]. Besides, the GI50 in test [5] is 6.38 µM (inactive); in test [6] it was 17.4 µM (inactive); in [7], 16.8 µM (inactive); in test [8], 18.3 µM (inactive); in [9] it was 16 µM (inactive); in test [11] it was 11.6 µM (inactive). Besides, the GI50 was 7.67 µM (inactive) in test [12]; 14.1 µM (inactive) in test [13]; 17.9 µM (inactive) in [15]; 20.6 µM (inactive) in test [16]; 15.6 µM (inactive) in [17].
For the molecule `N#C/C(=C(/S)Nc1ccccc1)c1nc2ccccc2[nH]1`, the GI50 in test [18] was > 10 µM (inactive); in [1], > 10 µM (inactive); in [19] it was > 10 µM (inactive); in test [2], > 10 µM (inactive); in [3], more than 10 µM; in [4] it was > 10 µM (inactive). Moreover, the GI50 is > 10 µM (inactive) in test [5]; 1 µM (active) in test [6]; > 10 µM (inactive) in [7]; > 10 µM (inactive) in test [8]; > 10 µM (inactive) in test [9]; > 10 µM (inactive) in test [10]. Also, the GI50 in test [11] is > 10 µM (inactive); in test [12] it was > 10 µM (inactive); in test [13], > 10 µM (inactive); in [14], > 10 µM (inactive); in test [15], 0.634 µM (active); in test [16], > 10 µM (inactive). Also, the GI50 in test [17] is > 10 µM (inactive).
For the molecule `C=C1C(C)C2C(Cc3ccccc3)NC(=O)C23C(OC(C)=O)C=CC(C)(O)C(=O)C(C)C/C=C/C3C1O` (centres undefined), the GI50 is 0.764 µM (active) in test [1]; 4.24 µM (inactive) in test [19]; 21.7 µM (inactive) in test [2]; 0.0678 µM (active) in test [4]; 0.569 µM (active) in [5]; 0.902 µM (active) in test [6]. In addition, the GI50 in test [7] was 0.158 µM (active); in test [8] it was 12.9 µM (inactive); in test [9], 0.258 µM (active); in test [10], 3.55 µM (inactive); in test [11], 79.8 µM (inactive); in test [12], 5.98 µM (inactive). Moreover, the GI50 in test [13] is 1.45 µM (inactive); in test [14], 0.117 µM (active); in [15], 0.752 µM (active); in [16], 0.0333 µM (active); in test [17] it was 3.3 µM (inactive).
Regarding `Cc1ccc(S(=O)(=O)Nc2cccc3c(=O)nc[nH]c23)cc1`, the GI50 in test [18] was > 100 µM (inactive); in test [1], 72.8 µM (inactive); in [19], 37.2 µM (inactive); in test [2] it was > 82 µM (inactive); in test [3] it was 61.5 µM; in [4], > 100 µM (inactive). In addition, the GI50 in test [5] is > 39.6 µM (inactive); in [6], > 100 µM (inactive); in [7], > 100 µM (inactive); in test [8] it was 90.8 µM (inactive); in [9], > 100 µM (inactive); in [10] it was > 100 µM (inactive). Also, the GI50 was > 100 µM (inactive) in test [11]; 17.8 µM (inactive) in test [12]; > 100 µM (inactive) in test [13]; > 100 µM (inactive) in test [14]; > 100 µM (inactive) in test [15]; > 51.1 µM (inactive) in test [16]. Also, in test [17], the GI50 is 10.7 µM (inactive).
Turning to `COc1ccc(C(CCC(C)=O)C(=O)O)cc1OC` (centres undefined), the GI50 is > 100 µM (inactive) in test [18]; > 100 µM (inactive) in test [1]; more than 100 µM in test [3]; > 100 µM (inactive) in test [4]; > 100 µM (inactive) in test [5]; > 100 µM (inactive) in test [6]. For the same molecule, the GI50 in test [7], in test [8], in test [9], in test [10], in test [11] and in [12] was > 100 µM (inactive) in each case. Moreover, the GI50 in [13], in test [14], in test [16] and in test [17] was > 100 µM (inactive) in each case.
In the case of `O=C(c1cccs1)N(C(=S)N1CCN(c2ccccn2)CC1)C1CCCCC1`, the GI50 in test [1] was 43.7 µM (inactive); in test [19], 81.1 µM (inactive); in test [3] it was 78 µM; in test [4], > 100 µM (inactive); in [5], 66.2 µM (inactive); in test [6], > 100 µM (inactive). Also, the GI50 in test [7] is 70.6 µM (inactive); in test [8] it was > 100 µM (inactive); in test [9] it was 54.6 µM (inactive); in test [10], > 100 µM (inactive); in [11] it was > 100 µM (inactive); in test [12], 43.1 µM (inactive). For the same molecule, the GI50 in [13] was > 100 µM (inactive); in test [14], > 100 µM (inactive); in test [15], > 100 µM (inactive); in [16] it was > 100 µM (inactive); in test [17], 36.6 µM (inactive).
Regarding `CC(C)C(=O)/C=C/c1ccc(Cl)cc1`, the GI50 in test [18] was > 10 µM (inactive); in test [1] it was 21.7 µM (inactive); in test [19], 4.19 µM (inactive); in test [2], 18 µM (inactive); in test [5], 16.7 µM (inactive); in test [6] it was 21.6 µM (inactive). The GI50 in test [7] was 26.2 µM (inactive); in [8] it was 17 µM (inactive); in test [9], 15.7 µM (inactive); in [10], 12.9 µM (inactive); in test [12], 5.37 µM (inactive); in test [13] it was 23.8 µM (inactive). Also, the GI50 in test [14] is 10.4 µM (inactive); in test [15], 40.5 µM (inactive); in test [16], 15.8 µM (inactive); in test [17] it was 4.84 µM (inactive).
Turning to `CCOc1ccc(NCc2cc(OC)c(OC)c(OC)c2)cc1`, the GI50 in test [1] was 0.847 µM (active); in test [2] it was 0.771 µM (active); in [3], 0.335 µM; in test [4], 0.753 µM (active); in [5], 5.43 µM (inactive); in [6], 1.49 µM (inactive). Also, the GI50 in test [7] was 0.333 µM (active); in test [8] it was 1.24 µM (inactive); in test [9] it was 0.499 µM (active); in [10] it was 41.6 µM (inactive); in test [12] it was 0.944 µM (active); in test [13] it was 2.29 µM (inactive). The GI50 was 0.486 µM (active) in [14], 0.706 µM (active) in test [15], 1.04 µM (active) in test [16] and 0.256 µM (active) in [17].
For `CCCCc1c2c(nc3c1CC/C(=C\c1ccccc1)C3=O)CCCC2`, the GI50 in [1] was 12.3 µM (inactive); in test [19], 3.43 µM (inactive); in test [2] it was 3.52 µM (inactive); in test [3], 3.3 µM; in [4], 4.62 µM (inactive); in [6], 4.61 µM (inactive). Moreover, the GI50 in test [7] was 3.59 µM (inactive); in test [8], 5.43 µM (inactive); in test [9] it was 4.89 µM (inactive); in test [11], 1.98 µM (inactive); in test [12], 2.88 µM (inactive); in test [13], 3.49 µM (inactive). The GI50 was 2.29 µM (inactive) in test [14], 10.2 µM (inactive) in test [15], 11 µM (inactive) in [16] and 3.54 µM (inactive) in [17].
As for `Cc1ccc(NC(=O)CC/C(CC(=O)c2ccc(Cl)cc2)=N\NC(=O)C(=O)NN)cc1C`, the GI50 is > 100 µM (inactive) in test [18]; > 100 µM (inactive) in [1]; > 100 µM (inactive) in [19]; > 100 µM (inactive) in [2]; more than 100 µM in test [3]; > 100 µM (inactive) in [4]. Moreover, the GI50 in test [6], in [7], in [8], in [9], in [10] and in test [11] was > 100 µM (inactive) throughout. Besides, the GI50 in test [12], in test [13], in [14], in test [15], in test [16] and in test [17] was > 100 µM (inactive) each time.
